Experimental data: PMC2796602 (Journal of the American Chemical Society, 2009)
Where a name gives a salt, the structure may show the parent alone. No end group written: not given here.

How the values were obtained:
[1] = tested on: hypoxia-induced gene expression in MCF7 cells; assay: Gene expression profiling with Affymetrix Human Gene ST 1.0 microarrays; type: cell-based; conditions: 300 μM DFO
[2] = molecular target: GST-tagged CH1 domain of human p300 (aa residues 323-423) (Homo sapiens, UniProt Q09472); assay: SPR binding to immobilized p300-CH1-GST
Sequence of GST-tagged CH1 domain of human p300 (aa residues 323-423) (Q09472 323-423): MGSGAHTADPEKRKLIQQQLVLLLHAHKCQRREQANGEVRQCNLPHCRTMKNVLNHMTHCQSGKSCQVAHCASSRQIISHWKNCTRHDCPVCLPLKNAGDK

[3] = molecular target: p300-CH1-GST fusion (Homo sapiens, UniProt Q09472); assay: CD spectroscopy of p300-CH1-GST fold; conditions: CD spectra
Sequence of p300-CH1-GST fusion (Q09472 323-423): as above

[4] = molecular target: p300-CH1-GST/HIF-1α C-TAD complex (Homo sapiens, UniProt Q09472); assay: Fluorescence polarization competition assay; type: binding
Sequence of p300-CH1-GST/HIF-1α C-TAD complex (Q09472 323-423, one chain of several): as the sequence (Q09472 323-423) above

[5] = tested on: MCF7 cells; assay: Cell viability assay; type: cell-based; conditions: Homo sapiens, MCF7, 24 h
[6] = tested on: HIF-1α levels in cells; assay: Western blot of HIF-1α levels; type: cell-based, human; conditions: 200 nM, 300 μM DFO
[7] = tested on: mice; conditions: cited from earlier work
[8] = molecular target: p300-CH1-GST fusion protein (GST-tagged CH1 domain of human p300, aa residues 323-423) (human, UniProt Q09472 323-423); assay: fluorescence polarisation
Sequence of p300-CH1-GST fusion protein (GST-tagged CH1 domain of human p300, aa residues 323-423) (Q09472 323-423): as above

Molecule: CC(=O)N(O)CCCCCNC(=O)CCC(=O)N(O)CCCCCNC(=O)CCC(=O)N(O)CCCCCN [DFO, desferrioxamine mesylate]
- number of transcripts affected (2-fold or more) by DFO treatment alone [1]: 580
- number of transcripts induced by at least 4-fold (P < 0.01) [1]: 43

Molecule: CN1C(=O)[C@]2(Cc3cn([C@]45C[C@@]67SS[C@@](CO)(C(=O)N6[C@H]4Nc4ccccc45)N(C)C7=O)c4ccccc34)SS[C@@]1(CO)C(=O)N2C [compound 2, chetomin]
- Kd [2]: 540 nM
- off-rate (Kd) ([2]; SPR, 100 μM DTT): 0.0033 s⁻¹
- concentration causing structural changes / unfolding of p300-CH1-GST [3]: 1 µM
- IC50 [4]: 540 ± 180 nM
- GI50 [5]: 180 ± 40 nM
- levels of HIF-1α in hypoxic cells [6]: remained constant
- effect on vascularization in mice [7]: inhibit vascularization in mice

Molecule: SMDESGLPQLTSYDCEVNAPIQGSRNLLQGEELLRALDQVN (peptide, UniProt Q16665 786-826, looked up, also: fluorescein label, position not given here) [fluorescein-labeled C-TAD domain of human HIF-1α (residues 786-826)]
- binding result [8]: binds
